Laboratory results from ChEMBL document CHEMBL1158881, “Puupehenone congeners from an indo-pacific hyrtios sponge” (J Nat Prod, 2003).
Activity calls are given as the source filed them.

What was measured:
Format in all cases: functional, cell-based
MC-38 = assay: Cytotoxicity against mouse Colon 38 cells by Valeriote soft agar disk diffusion assay
H116 = assay: Cytotoxicity against human H116 cells by Valeriote soft agar disk diffusion assay
L1210 = assay: Cytotoxicity against mouse L1210 cells by Valeriote soft agar disk diffusion assay

Measured: Activity

COC1=CC2=C[C@@H]3[C@@]4(C)CCCC(C)(C)[C@@H]4CC[C@]3(C)OC2=CC1=O
inactive: all assays above

COc1cc2c(cc1O)O[C@@]1(C)CC[C@H]3C(C)(C)CCC[C@]3(C)C1=C2
inactive: all assays above

COc1cc2c(cc1O)O[C@@]1(C)CC[C@H]3C(C)(C)CCC[C@]3(C)[C@H]1[C@@H]2OC
inactive: all assays above
